How the values were obtained:
[1] = Pharmacokinetic study of unlabeled (cold) analogs in CD1 mice; format: in vivo; conditions: for AUC(0-inf) / half-life / clearance / Vd: mouse, in vivo; for clearance: read-out: Total clearance (converted); for Vd: read-out: Vss; for Total clearance, percentage in brackets / Vss, percentage in brackets: reference of the percentage not explained
Description: (§1) In order to determine the pharmacokinetics properties of APO-698, its unlabeled analog, APO-697 was used. Table-1 summarizes the pharmacokinetic study performed in CD1 mice for the two unlabeled (cold) analogs, ML-10 and APO-697.

[2] = Blood partitioning (red blood cells/plasma); format: in vitro ADME; conditions: mouse blood
Description: as §1

[3] = Pharmacokinetic evaluation of tritiated candidates in naive and chemotherapy treated mice; conditions: mouse, in vivo
Description: as §1

[4] = test system: CD95-treated Jurkat cells; test: In-vitro screening: uptake of tritiated compounds into apoptotic Jurkat cells; format: cell-based; conditions: tritiated compound, 30 minutes, 37° C., beta-counter; control untreated uptake set as 1
Procedure: Uptake was measured using beta counter. zVAD treated cells reversed the phenotype decreasing uptake to control values (set as 1) in all tested candidates. Shown are means±SD of three independent experiments performed in triplicates.
For in-vitro screening of the compounds of the invention, apoptosis-induction model in hematopoietic derived cancer cell line, Jurkat was used.
Jurkat cells were cultured in RPMI supplemented with 10% fetal bovine serum, 4 mM L-glutamine, 100 U/ml penicillin and 100 n/ml streptomycin in a humidified incubator at 37° C., 5% CO2. Cells were counted and re-suspended in hepes buffer saline (HBS).
Apoptosis induction: 10^7 cells/ml were incubated for two hours with 0.1 n/ml of anti-Fas (CD95) antibody. For apoptosis inhibition (specific control), induced and control cells were incubated with 50 μM of the specific caspase inhibitor, Zvad. 2 μl Ci of the tritiated compounds or ML-10 as reference, were added to the cells for 30 minutes. All incubations were performed at 37° C. After incubation with the tritiated compounds, cells were washed twice in HBS, transferred to scintillation liquid and radioactivity was monitored using beta-counter. The percentage of uptake was calculated using the standard DPM readings. […]

[5] = test system: human colorectal cancer cells HCT-116 xenografts; test: In-vivo screening: tumor/blood uptake ratio in HCT-116 xenografts; set-up: species or system Athymic nude mice; conditions: intravenous tritiated compound, HCT-116 xenograft, FIG. 2 (one and a half hours before samples collection)
Procedure: Athymic nude mice were inoculated with HCT-116 human colorectal cancer cells. Mice were subjected to intravenous injection of tritiated ML-10 and APO-650 one and a half hours before samples collection. Blood samples were taken before sacrificing the animals. Blood and tumor samples radioactivity was measured in a beta-counter.
In order to assess the in-vivo accumulation of ML-10 and compounds of the invention, the uptake into human colorectal cancer cells HCT-116 xenografts was monitored. Athymic nude mice were subcutaneously inoculated with […] HCT-116 cells. After the formation of tumors, ML-10 and APO-650 were intravenously administrated to the mice, 30 and 90 minutes before scarification (n≧8). Peripheral blood samples were collected prior to animals' scarification. Tumors were dissected, homogenized and all samples were calibrated in scintillation fluid before radioactivity was measured in a beta-counter. To inspect signal to noise ratio, the ratio of uptake into the tumor versus blood was calculated.

Row | SMILES | AUC(0-inf) ([1]; unlabeled compound) [ng·h/mL] | half-life ([1]; unlabeled compound) [min] | clearance ([1]; unlabeled compound) [mL/min/kg] | Vd ([1]; unlabeled compound) [L/kg] | Total clearance, percentage in brackets [1] | Vss, percentage in brackets [1] | KRBC/PL [2] | fold increase uptake of CD95-treated cells (uptake of the tracer into the apoptotic cells) [4] | half-life ([3]; t1/2) [min] | further results
1 | CC(CCCCCF)(C(=O)O)C(=O)O [ML-10, (5-fluoropentyl)(methyl)propanedioic acid, reference compound] | 32.6 | 11.2 | 10.2 | 0.152 | (11.4%) | (21.0%) | 0.01 |  |  | half-life ([3]; Naive mice, tritiated, read-out: t1/2): 10 min
2 | CC(CCCCC[18F])(c1nnn[nH]1)c1nnn[nH]1 [APO-600, 5,5′(7-^18fluoroheptane-2,2-diyl)bis(1H-tetrazole)] |  |  |  |  |  |  |  | high uptake |  | 
3 | CN(CCCCC(C)(C(=O)O)C(=O)O)c1ncc([N+](=O)[O-])s1 [APO-650, 2-methyl-2-{4-[(5-nitro-1,3-thiazol-2-yl)tritritiummethylamino]butyl}propanedioic acid] |  |  |  |  |  |  |  |  | 8 | tumor/blood ratio [5]: six-fold
4 | COc1cc2c(c(OC)c1OC)-c1ccc(OC)c(=O)cc1[C@@H](NC(=O)CCCCCC(C)(C(=O)O)C(=O)O)CC2 [APO-697, 2-methyl-2-(5-{[(10S)-3,4,5,14-tetramethoxy-13-oxotricyclo[9.5.0.0{2,7}]hexadeca-1(16),2,4,6,11,14-hexaen-10-yl]carbamoyl}pentyl)propanedioic acid] | 5.16 | 7.92 | 64.7 | 0.435 | (71.9%) | (60.0%) | 0.07 |  |  | Total clearance ([1]; unlabeled compound): higher; Vss ([1]; unlabeled compound): higher volume of distribution; t1/2 ([1]; unlabeled compound): shorter t1/2
5 | O=C(O)c1ccc(CCC[18F])cc1C(=O)O [APO-630, 4-(3-^18fluoropropyl)phthalic acid] |  |  |  |  |  |  |  | high uptake | 10 | 

Source: patent US20150064111A1, “NOVEL TARGETING AGENTS FOR DIAGNOSTIC AND THERAPEUTIC INDICATIONS” (APOSENSE LTD., priority 2012, published 2015)
